Laboratory results from ChEMBL document CHEMBL5233210, “Pyrazolone structural motif in medicinal chemistry: Retrospect and prospect” (Eur J Med Chem, 2020).
In brackets after ≈: the same amount, converted by molar mass.

What was measured:
[1] = target: Glycogen synthase kinase-3 beta (Homo sapiens, UniProt P49841); assay: Inhibition of human GSK-3beta
[2] = target: Acetylcholinesterase (Electrophorus electricus, UniProt O42275); assay: Inhibition of electric eel AChE
[3] = target: Cholinesterase (Equus caballus) (UniProt P81908); assay: Inhibition of equine serum BChE at 10^-3 M relative to control; assay type: cell-free; conditions: dose 1.0 10^-3M
Sequence of Cholinesterase (Equus caballus) (P81908 whole entry): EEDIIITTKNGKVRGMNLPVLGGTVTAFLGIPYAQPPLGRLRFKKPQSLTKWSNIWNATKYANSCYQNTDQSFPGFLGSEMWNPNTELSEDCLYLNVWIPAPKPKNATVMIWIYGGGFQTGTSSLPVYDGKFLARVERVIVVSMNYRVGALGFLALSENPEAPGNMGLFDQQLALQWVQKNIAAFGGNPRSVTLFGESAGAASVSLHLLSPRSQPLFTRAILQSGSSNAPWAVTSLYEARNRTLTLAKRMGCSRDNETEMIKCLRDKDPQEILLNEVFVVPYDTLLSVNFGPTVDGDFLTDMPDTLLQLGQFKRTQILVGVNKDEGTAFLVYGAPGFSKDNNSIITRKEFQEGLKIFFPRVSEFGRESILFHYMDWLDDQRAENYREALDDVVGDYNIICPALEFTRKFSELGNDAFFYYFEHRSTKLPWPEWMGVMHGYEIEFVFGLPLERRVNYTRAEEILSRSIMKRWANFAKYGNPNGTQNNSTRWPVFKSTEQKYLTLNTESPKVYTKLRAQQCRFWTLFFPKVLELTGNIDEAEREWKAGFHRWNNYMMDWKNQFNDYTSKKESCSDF

[4] = target: T1, Amine oxidase [flavin-containing] A (Homo sapiens, UniProt P21397); assay: Inhibition of MAO-A (unknown origin) relative to control
T1 sequence (P21397 whole entry): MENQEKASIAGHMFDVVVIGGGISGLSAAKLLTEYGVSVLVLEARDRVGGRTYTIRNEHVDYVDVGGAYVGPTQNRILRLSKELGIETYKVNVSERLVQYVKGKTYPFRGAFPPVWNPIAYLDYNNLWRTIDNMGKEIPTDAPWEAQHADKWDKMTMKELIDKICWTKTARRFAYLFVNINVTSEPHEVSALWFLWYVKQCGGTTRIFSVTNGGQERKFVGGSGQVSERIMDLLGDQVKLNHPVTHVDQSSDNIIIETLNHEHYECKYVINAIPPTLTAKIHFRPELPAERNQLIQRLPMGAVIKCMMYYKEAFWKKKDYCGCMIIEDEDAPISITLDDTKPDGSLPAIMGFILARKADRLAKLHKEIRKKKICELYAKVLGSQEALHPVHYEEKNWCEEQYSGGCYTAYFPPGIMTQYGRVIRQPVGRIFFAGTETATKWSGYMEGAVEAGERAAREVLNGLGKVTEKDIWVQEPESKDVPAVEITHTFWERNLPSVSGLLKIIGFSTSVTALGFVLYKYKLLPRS

[5] = species on record: Mus musculus; assay: Antidepressant activity in Swiss albino mouse assessed as change in immobility by forced swim test; assay type: functional
[6] = species on record: Mus musculus; assay: Antidepressant activity in Swiss albino mouse assessed as decrease in immobility time by forced swim test (reference value: 203.3 sec); assay type: functional
[7] = species on record: Mus musculus; assay: Antidepressant activity in Swiss albino mouse assessed as decrease in immobility time by tail suspension test (reference value: 185.8 sec); assay type: functional
[8] = species on record: Mus musculus; assay: Antidepressant activity in Swiss albino mouse assessed as change in immobility by tail suspension test; assay type: functional
[9] = tested on: Bacillus subtilis; assay: Antibacterial activity against Bacillus subtilis assessed as diameter of inhibition zone at 100 ppm; assay type: functional; conditions: read-out: DIZ
[10] = tested on: Streptococcus mutans; assay: Antibacterial activity against Streptococcus mutans assessed as diameter of inhibition zone at 100 ppm; assay type: functional; conditions: read-out: DIZ
[11] = tested on: Micrococcus luteus; assay: Antibacterial activity against Micrococcus luteus assessed as diameter of inhibition zone at 100 ppm; assay type: functional; conditions: read-out: DIZ
[12] = tested on: Pseudomonas aeruginosa; assay: Antibacterial activity against Pseudomonas aeruginosa assessed as diameter of inhibition zone at 100 ppm; assay type: functional; conditions: read-out: DIZ
[13] = tested on: Salmonella typhi; assay: Antibacterial activity against Salmonella typhi assessed as diameter of inhibition zone at 100 ppm; assay type: functional, Salmonella enterica subsp. enterica serovar Typhi; conditions: Salmonella enterica, read-out: DIZ
[14] = tested on: Salmonella paratyphi; assay: Antibacterial activity against Salmonella paratyphi assessed as diameter of inhibition zone at 100 ppm; assay type: functional, Salmonella enterica subsp. enterica serovar Paratyphi A; conditions: Salmonella enterica, read-out: DIZ
[15] = tested on: Candida albicans; assay: Antifungal activity against Candida albicans assessed as diameter of inhibition zone at 100 ppm; assay type: functional; conditions: read-out: DIZ
[16] = tested on: Trichoderma viride; assay: Antifungal activity against Trichoderma viride assessed as diameter of inhibition zone at 100 ppm; assay type: functional; conditions: read-out: DIZ
[17] = species on record: Mus musculus; assay: Anticonvulsant activity in mouse by MES test; assay type: functional
[18] = target: T1, Amine oxidase [flavin-containing] A; assay: Inhibition of human MAO-A
[19] = target: T2, Amine oxidase [flavin-containing] B (Homo sapiens, UniProt P27338); assay: Inhibition of human MAO-B
T2 sequence (P27338 whole entry): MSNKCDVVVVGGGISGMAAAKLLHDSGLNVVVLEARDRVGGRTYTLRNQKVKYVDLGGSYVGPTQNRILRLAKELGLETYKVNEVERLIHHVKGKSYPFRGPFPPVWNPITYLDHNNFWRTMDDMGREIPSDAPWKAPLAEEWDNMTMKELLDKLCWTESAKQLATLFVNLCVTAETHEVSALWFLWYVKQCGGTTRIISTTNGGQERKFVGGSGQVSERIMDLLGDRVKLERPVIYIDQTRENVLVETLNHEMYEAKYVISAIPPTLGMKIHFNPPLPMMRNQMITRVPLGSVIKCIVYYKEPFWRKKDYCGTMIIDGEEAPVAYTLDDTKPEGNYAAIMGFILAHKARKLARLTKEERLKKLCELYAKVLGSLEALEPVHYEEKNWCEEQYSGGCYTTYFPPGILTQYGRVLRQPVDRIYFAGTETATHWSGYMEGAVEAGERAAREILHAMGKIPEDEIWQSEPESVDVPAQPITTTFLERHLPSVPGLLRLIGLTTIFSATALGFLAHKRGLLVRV

[20] = species on record: Homo sapiens; assay: Selectivity index, ratio of Ki for human MAO-B to Ki for human MAO-A
[21] = target: Amine oxidase [flavin-containing] A (Rattus norvegicus, UniProt P21396); assay: Inhibition of rat brain synaptosome MAO-A; assay type: subcellular
Sequence of Amine oxidase [flavin-containing] A (Rattus norvegicus, UniProt P21396) (P21396 whole entry): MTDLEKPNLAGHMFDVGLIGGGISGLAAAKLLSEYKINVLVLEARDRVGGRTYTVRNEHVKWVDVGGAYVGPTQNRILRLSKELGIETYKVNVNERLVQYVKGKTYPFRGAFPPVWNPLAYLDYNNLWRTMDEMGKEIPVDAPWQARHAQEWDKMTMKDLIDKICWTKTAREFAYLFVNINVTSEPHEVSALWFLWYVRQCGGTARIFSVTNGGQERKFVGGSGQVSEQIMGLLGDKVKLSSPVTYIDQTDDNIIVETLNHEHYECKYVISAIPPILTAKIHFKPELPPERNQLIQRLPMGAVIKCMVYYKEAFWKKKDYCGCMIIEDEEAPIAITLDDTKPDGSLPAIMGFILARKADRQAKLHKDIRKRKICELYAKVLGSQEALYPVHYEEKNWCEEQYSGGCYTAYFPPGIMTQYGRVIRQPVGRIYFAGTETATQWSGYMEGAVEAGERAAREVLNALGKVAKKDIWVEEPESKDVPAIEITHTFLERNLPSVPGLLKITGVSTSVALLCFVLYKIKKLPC

[22] = target: Amine oxidase [flavin-containing] B (Rattus norvegicus, UniProt P19643); assay: Inhibition of rat brain synaptosome MAO-B; assay type: subcellular
Sequence of Amine oxidase [flavin-containing] B (Rattus norvegicus, UniProt P19643) (P19643 whole entry): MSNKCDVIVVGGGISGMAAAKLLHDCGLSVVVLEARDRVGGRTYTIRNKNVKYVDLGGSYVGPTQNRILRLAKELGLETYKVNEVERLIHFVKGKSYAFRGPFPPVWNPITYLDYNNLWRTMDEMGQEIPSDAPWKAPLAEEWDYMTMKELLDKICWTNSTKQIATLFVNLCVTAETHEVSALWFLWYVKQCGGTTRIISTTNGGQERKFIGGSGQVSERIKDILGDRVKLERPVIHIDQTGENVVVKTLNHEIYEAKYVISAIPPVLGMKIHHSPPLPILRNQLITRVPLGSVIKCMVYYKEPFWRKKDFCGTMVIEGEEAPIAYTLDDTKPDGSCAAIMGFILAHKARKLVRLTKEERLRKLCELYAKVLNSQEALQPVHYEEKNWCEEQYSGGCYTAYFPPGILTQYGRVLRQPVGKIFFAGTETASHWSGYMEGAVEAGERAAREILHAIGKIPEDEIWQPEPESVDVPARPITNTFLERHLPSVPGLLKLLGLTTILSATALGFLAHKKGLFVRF

[23] = tested on: HepG2; assay: Cytotoxicity against human HepG2 cells; assay type: functional, cell-based
[24] = tested on: PC-3; assay: Cytotoxicity against human PC-3 cells; assay type: functional, cell-based
[25] = target: T3, Prostaglandin G/H synthase 1 (Ovis aries, UniProt P05979); assay: Inhibition of ovine COX-1
T3 sequence (P05979 whole entry): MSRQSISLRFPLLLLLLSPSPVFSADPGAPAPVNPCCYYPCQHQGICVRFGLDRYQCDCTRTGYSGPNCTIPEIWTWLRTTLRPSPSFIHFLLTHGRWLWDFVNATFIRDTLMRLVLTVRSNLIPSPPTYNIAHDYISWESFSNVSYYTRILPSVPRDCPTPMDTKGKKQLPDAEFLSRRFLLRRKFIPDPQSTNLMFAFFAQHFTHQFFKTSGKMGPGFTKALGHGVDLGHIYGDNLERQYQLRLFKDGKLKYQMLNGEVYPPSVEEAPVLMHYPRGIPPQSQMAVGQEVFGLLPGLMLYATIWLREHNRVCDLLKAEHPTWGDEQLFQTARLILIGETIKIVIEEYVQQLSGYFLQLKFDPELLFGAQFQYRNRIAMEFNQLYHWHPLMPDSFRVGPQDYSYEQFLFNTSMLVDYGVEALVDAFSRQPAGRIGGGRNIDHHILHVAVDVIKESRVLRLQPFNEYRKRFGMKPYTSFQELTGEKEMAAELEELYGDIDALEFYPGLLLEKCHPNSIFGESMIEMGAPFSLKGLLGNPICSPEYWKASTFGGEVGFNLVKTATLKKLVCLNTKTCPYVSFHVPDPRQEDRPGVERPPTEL

[26] = target: T4, Prostaglandin G/H synthase 2 (Ovis aries, UniProt P79208); assay: Inhibition of ovine COX-2
T4 sequence (P79208 whole entry): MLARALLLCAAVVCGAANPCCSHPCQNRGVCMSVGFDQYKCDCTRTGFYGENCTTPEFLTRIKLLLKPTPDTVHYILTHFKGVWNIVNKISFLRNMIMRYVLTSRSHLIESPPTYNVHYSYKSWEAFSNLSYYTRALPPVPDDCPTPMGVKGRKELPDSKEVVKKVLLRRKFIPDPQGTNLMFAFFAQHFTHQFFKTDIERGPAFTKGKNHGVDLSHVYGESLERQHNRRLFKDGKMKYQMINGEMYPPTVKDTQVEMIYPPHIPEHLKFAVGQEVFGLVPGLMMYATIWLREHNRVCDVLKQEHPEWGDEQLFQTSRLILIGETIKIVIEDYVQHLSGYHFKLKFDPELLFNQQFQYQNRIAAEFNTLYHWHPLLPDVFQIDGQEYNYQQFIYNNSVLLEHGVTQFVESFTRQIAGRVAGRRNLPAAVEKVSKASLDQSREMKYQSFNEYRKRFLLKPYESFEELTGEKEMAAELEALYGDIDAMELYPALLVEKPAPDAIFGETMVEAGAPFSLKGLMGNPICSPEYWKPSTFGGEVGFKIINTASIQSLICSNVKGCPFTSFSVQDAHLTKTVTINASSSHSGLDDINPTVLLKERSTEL

[27] = species on record: Ovis aries; assay: Selectivity index, ratio of IC50 for ovine COX-1 to IC50 for ovine COX-2
[28] = tested on: Rattus norvegicus; assay: Antiinflammatory activity against rat assessed as inhibition of carrageenan-induced paw edema relative to control; assay type: functional; set-up: concentration or dose not given beside the values
[29] = tested on: Rattus norvegicus; assay: Antiinflammatory activity against rat assessed as inhibition of carrageenan-induced paw edema; assay type: functional

Sequence of Acetylcholinesterase (O42275 whole entry): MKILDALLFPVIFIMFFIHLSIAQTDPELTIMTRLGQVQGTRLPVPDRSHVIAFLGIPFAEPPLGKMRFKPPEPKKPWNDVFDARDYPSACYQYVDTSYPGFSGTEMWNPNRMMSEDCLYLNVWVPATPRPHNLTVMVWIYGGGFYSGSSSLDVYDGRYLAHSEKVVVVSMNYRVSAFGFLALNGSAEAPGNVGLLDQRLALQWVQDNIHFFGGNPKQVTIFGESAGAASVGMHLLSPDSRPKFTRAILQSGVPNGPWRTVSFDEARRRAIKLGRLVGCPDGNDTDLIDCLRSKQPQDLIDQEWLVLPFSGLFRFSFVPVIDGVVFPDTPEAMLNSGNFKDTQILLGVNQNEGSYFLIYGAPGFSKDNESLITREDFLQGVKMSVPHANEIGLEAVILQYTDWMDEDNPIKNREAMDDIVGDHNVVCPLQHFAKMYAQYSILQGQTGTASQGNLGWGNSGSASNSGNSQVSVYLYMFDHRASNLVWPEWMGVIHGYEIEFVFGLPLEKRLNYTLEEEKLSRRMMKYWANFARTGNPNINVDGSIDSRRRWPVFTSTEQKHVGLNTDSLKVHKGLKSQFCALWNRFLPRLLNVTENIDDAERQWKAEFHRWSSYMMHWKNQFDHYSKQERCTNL
Sequence of Glycogen synthase kinase-3 beta (P49841 whole entry): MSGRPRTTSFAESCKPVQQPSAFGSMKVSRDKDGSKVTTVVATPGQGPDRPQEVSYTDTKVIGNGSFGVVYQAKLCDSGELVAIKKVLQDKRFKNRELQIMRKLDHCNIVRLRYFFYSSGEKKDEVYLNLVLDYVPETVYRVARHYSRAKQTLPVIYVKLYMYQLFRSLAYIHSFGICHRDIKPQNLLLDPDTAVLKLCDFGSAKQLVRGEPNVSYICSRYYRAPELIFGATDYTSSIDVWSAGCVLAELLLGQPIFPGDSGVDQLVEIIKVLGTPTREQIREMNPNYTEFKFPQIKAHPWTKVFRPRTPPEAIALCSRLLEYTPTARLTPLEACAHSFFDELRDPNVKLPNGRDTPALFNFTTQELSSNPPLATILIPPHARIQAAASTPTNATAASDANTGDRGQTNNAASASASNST

Cn1cc(-c2[nH][nH]c(=O)c2-c2cn(C)c3ccccc23)c2ccccc21
IC50 [1]: 34 nM

Cc1cccc(C)c1/C=N/c1c(C)n(C)n(-c2ccccc2)c1=O
IC50 [2]: 57 nM
inhibition [3]: 96.3%
inhibition (INH) [4]: 42.3%

CC1=NN(C(=O)c2ccc3ccccc3c2)C(=O)C1/N=N/c1ccc(C)cc1C (centres undefined)
Activity [5]: -36.3%
Time [6]: 129.5 s
Time [7]: 111 s
Activity [8]: -40.2%

Cc1[nH]n(-c2ccccc2)c(=O)c1C(c1ccc(Br)cc1)c1c(O)ccc2ccccc12 (centres undefined)
zone of inhibition at 100 µg/mL [9]: 18.5 mm
zone of inhibition at 100 µg/mL [10]: 29.5 mm
zone of inhibition at 100 µg/mL [11]: 18.5 mm
zone of inhibition at 100 µg/mL [12]: 14.5 mm
zone of inhibition at 100 µg/mL [13]: 19.5 mm
zone of inhibition at 100 µg/mL [14]: 19.5 mm
zone of inhibition at 100 µg/mL [15]: 15.5 mm
zone of inhibition at 100 µg/mL [16]: 13.5 mm

CC1=NN(C(=O)c2ccc3ccccc3c2)C(=O)C1/N=N/c1ccc(Cl)cc1Cl (centres undefined)
Activity [5]: -51.9%
Time [6]: 97.7 s
Time [7]: 114.3 s
Activity [8]: -38.4%

CC1=NN(c2ccccc2)C(=O)/C1=C\c1cn(-c2ccccc2)nc1-c1ccc(Cl)c(Cl)c1
Activity [17]: 79.76%

Cc1c(C(=O)CC(C#N)C#N)c(=O)n(-c2ccccc2)n1C
Ki [18]: 0.014 nM
Ki [19]: 121 nM
Ratio Ki [20]: 8670
IC50 [21]: 2340 nM
IC50 [22]: 132 nM

CC/C(=N/NC(=O)c1ccco1)c1c(C)nn(-c2ccccc2)c1O
IC50 [23]: 5.69 µg/mL (≈ 16.8 µM)
IC50 [24]: 6.8 µg/mL (≈ 20.1 µM)

NS(=O)(=O)c1ccc(N/N=C2/C=NN(c3ccccc3C(=O)O)C2=O)cc1
IC50 [25]: 3760 nM
IC50 [26]: 660 nM
Ratio IC50 [27]: 5.69

Cc1[nH]n(-c2ccccc2)c(=O)c1C(c1ccc(Br)c(F)c1)c1c(O)ccc2ccccc12 (centres undefined)
zone of inhibition at 100 µg/mL [9]: 19.5 mm
zone of inhibition at 100 µg/mL [10]: 18 mm
zone of inhibition at 100 µg/mL [11]: 16.5 mm
zone of inhibition at 100 µg/mL [12]: 14.5 mm
zone of inhibition at 100 µg/mL [13]: 20.5 mm
zone of inhibition at 100 µg/mL [14]: 19.5 mm
zone of inhibition at 100 µg/mL [15]: 18.5 mm
zone of inhibition at 100 µg/mL [16]: 10.5 mm

NS(=O)(=O)c1ccc(N2N=C/C(=N/Nc3ccc(C(=O)O)cc3)C2=O)cc1
Activity [28]: 72.72%
IC50 [25]: 3810 nM
IC50 [26]: 720 nM
Ratio IC50 [27]: 5.29
ED50 [29]: 44 µmol/kg

Cc1c(-c2cc(C#N)c(N)o2)c(=O)n(-c2ccccc2)n1C
Ki [18]: 0.346 nM
Ki [19]: 766 nM
Ratio Ki [20]: 2210
IC50 [21]: 7.99 nM
IC50 [22]: 45.4 nM
